Measured values published in the NIST ThermoML archive (doi:10.1021/acs.jced.5b00536).
“And” between values parts separate entries of the source, which are not always exact repeats. Equal values may be shown once.

Assay: xn = mol fraction of the nth substance listed
Settings: x2 = 0.79; for electrical conductivity / mass density: 100 kPa, Liquid; for electrical conductivity: Alternating current cell with electrodes; for mass density: Buoyancy - hydrostatic balance; for surface tension liquid-gas: Maximal bubble pressure

[Ca+2].[F-].[F-] [calcium fluoride] + [F-].[Li+]
Settings | electrical conductivity [S/m] | mass density | surface tension liquid-gas [mN/m]
1131.2 K | 0.05865 | – | –
1131.4 K | – | 2066.7 kg/m3 | –
1131.9 K | – | 2066.7 kg/m3 | –
1132.7 K | – | 2065.5 kg/m3 | –
1132.8 K | – | 2066 kg/m3 | –
1133 K | 0.05876 | – | –
1133.3 K | – | 2064.9 kg/m3 | –
1134.1 K | – | 2064.2 kg/m3 | –
1134.2 K | – | 2064.2 kg/m3 | –
1134.7 K | 0.05888 | – | –
1135 K | – | 2063.5 kg/m3 | –
1135.3 K | – | 2062.4 kg/m3 and 2063 kg/m3 | –
1135.7 K | – | 2062.4 kg/m3 | –
1136.2 K | – | 2061.7 kg/m3 | –
1136.4 K | 0.05912 | – | –
1136.5 K | – | 2060.6 kg/m3 | –
1136.8 K | – | 2060.6 kg/m3 | –
1136.9 K | – | 2061.1 kg/m3 | –
1137.2 K | – | 2060 kg/m3 | –
1137.5 K | – | 2061.6 kg/m3 | –
1137.8 K | – | 2061 kg/m3 | –
1138.1 K | 0.05927 | – | –
1138.2 K | – | 2060.4 kg/m3 | –
1138.7 K | – | 2059.8 kg/m3 | –
1139.3 K | – | 2059.2 kg/m3 | –
1139.9 K | 0.05965 | – | –
1140 K | – | 2059.1 kg/m3 | –
1140.4 K | – | 2058.5 kg/m3 | –
1140.8 K | – | 2057.9 kg/m3 | –
1141.1 K | – | 2057.3 kg/m3 | –
1141.4 K | – | 2056.7 kg/m3 | –
1141.5 K | 0.05989 | – | –
1142 K | – | 2056.6 kg/m3 | –
1142.7 K | – | 2056 kg/m3 | –
1143.2 K | 0.06013 | – | –
1143.4 K | – | 2055.4 kg/m3 | –
1143.5 K | – | 2054.8 kg/m3 | –
1144.2 K | – | 2054.7 kg/m3 | –
1144.4 K | – | 2054.1 kg/m3 | –
1144.7 K | – | 2053.5 kg/m3 | –
1144.9 K | 0.06033 | – | –
1145.2 K | – | 2053.5 kg/m3 | –
1145.5 K | – | 2052.9 kg/m3 | –
1146 K | – | 2061.1 kg/m3 | –
1146.5 K | 0.06057 | 2061.1 kg/m3 | –
1146.9 K | – | 2060.5 kg/m3 | –
1147.5 K | – | 2059.8 kg/m3 | –
1147.8 K | – | 2059.2 kg/m3 | –
1148 K | – | 2059.2 kg/m3 | –
1148.2 K | 0.06057 | – | –
1148.6 K | – | 2058.6 kg/m3 | –
1148.9 K | – | 2058 kg/m3 | –
1149 K | – | 2058 kg/m3 | –
1149.7 K | – | 2057.4 kg/m3 | –
1149.9 K | 0.06079 | – | –
1150.3 K | – | 2056.7 kg/m3 | –
1150.8 K | – | 2056.7 kg/m3 | –
1151 K | – | – | 215.9
1151.4 K | 0.06095 | 2056.1 kg/m3 | –
1152 K | – | 2055.4 kg/m3 | –
1152.6 K | – | 2055.4 kg/m3 | –
1152.9 K | – | 2054.8 kg/m3 | –
1153 K | 0.06111 | – | –
1153.8 K | – | 2054.1 kg/m3 | –
1154.1 K | – | 2053.5 kg/m3 | –
1154.5 K | 0.06131 | – | –
1154.6 K | – | 2053.5 kg/m3 | –
1154.8 K | – | 2052.3 kg/m3 and 2052.9 kg/m3 | –
1155.5 K | – | 2051.7 kg/m3 | –
1155.6 K | – | 2051.7 kg/m3 | –
1155.9 K | – | 2051.1 kg/m3 | –
1156.2 K | 0.0616 | – | –
1156.5 K | – | 2050.5 kg/m3 | –
1156.6 K | – | 2049.9 kg/m3 and 2051 kg/m3 | –
1157.1 K | – | 2050.4 kg/m3 | –
1157.5 K | – | 2050.4 kg/m3 | –
1157.7 K | 0.06168 | 2049.8 kg/m3 | –
1158.8 K | – | 2049.1 kg/m3 | –
1159 K | – | 2048.5 kg/m3 | –
1159.1 K | – | 2048.5 kg/m3 | –
1159.2 K | 0.06195 | – | –
1159.9 K | – | 2047.9 kg/m3 | –
1160.2 K | – | 2047.3 kg/m3 | –
1160.7 K | 0.06201 | – | –
1161.3 K | – | 2046.6 kg/m3 | –
1161.9 K | – | 2046 kg/m3 | –
1162.1 K | 0.062142 | – | –
1162.8 K | – | 2045.9 kg/m3 | –
1163.2 K | – | 2045.3 kg/m3 | –
1163.6 K | 0.062335 | 2044.7 kg/m3 | –
1164.3 K | – | 2044.6 kg/m3 | –
1164.7 K | – | 2048.4 kg/m3 | –
1164.8 K | 0.062395 | – | –
1164.9 K | – | 2048.4 kg/m3 | –
1165.1 K | – | 2048.4 kg/m3 | –
1165.4 K | – | 2047.8 kg/m3 | –
1166.2 K | – | 2047.1 kg/m3 | –
1166.5 K | – | 2046.5 kg/m3 | –
1167.2 K | – | 2046.4 kg/m3 | –
1167.7 K | – | 2045.8 kg/m3 | –
1167.9 K | – | 2045.3 kg/m3 | –
1168.5 K | – | 2045.2 kg/m3 | –
1168.8 K | – | 2044.6 kg/m3 | –
1169 K | – | 2044.6 kg/m3 | –
1169.3 K | – | 2044 kg/m3 | –
1169.9 K | – | 2043.4 kg/m3 | –
1170 K | – | – | 216
1170.1 K | – | 2042.8 kg/m3 | –
1170.6 K | – | 2042.7 kg/m3 | –
1171.2 K | – | 2042.1 kg/m3 | –
1171.5 K | – | 2041.5 kg/m3 | –
1171.9 K | – | 2040.9 kg/m3 | –
1172.2 K | – | 2040.9 kg/m3 | –
1172.9 K | – | 2040.3 kg/m3 | –
1173.2 K | – | 2039.7 kg/m3 | –
1173.3 K | – | 2039.1 kg/m3 | –
1173.6 K | – | 2039.1 kg/m3 | –
1173.8 K | – | 2038.5 kg/m3 | –
1174.9 K | – | 2043.9 kg/m3 | –
1175.4 K | – | 2043.3 kg/m3 | –
1176 K | – | 2042.7 kg/m3 | –
1176.3 K | – | 2042.1 kg/m3 | –
1177.1 K | – | 2042 kg/m3 | –
1177.5 K | – | 2041.4 kg/m3 | –
1178.4 K | – | 2040.7 kg/m3 | –
1179.4 K | – | 2040 kg/m3 | –
1179.7 K | – | 2040 kg/m3 | –
1180.3 K | – | 2039.4 kg/m3 | –
1180.5 K | – | 2038.3 kg/m3 and 2038.8 kg/m3 | –
1180.8 K | – | 2037.7 kg/m3 | –
1181 K | – | 2037.1 kg/m3 | –
1181.2 K | – | 2037.1 kg/m3 | –
1181.6 K | – | 2036.5 kg/m3 | –
1182.2 K | – | 2035.9 kg/m3 | –
1182.5 K | – | 2035.8 kg/m3 | –
1182.8 K | – | 2035.2 kg/m3 | –
1183.2 K | – | 2034.6 kg/m3 | –
1183.9 K | – | 2034.6 kg/m3 | –
1184.1 K | – | 2034 kg/m3 | –
1184.5 K | – | 2033.9 kg/m3 | –
1185.8 K | – | 2036.5 kg/m3 | –
1186.6 K | – | 2035.9 kg/m3 | –
1187 K | – | 2035.3 kg/m3 | –
1187.8 K | – | 2035.2 kg/m3 | –
1188 K | – | – | 213.8
1188.4 K | – | 2034.6 kg/m3 | –
1189.1 K | – | 2033.9 kg/m3 | –
1189.4 K | – | 2033.9 kg/m3 | –
1189.9 K | – | 2033.3 kg/m3 | –
1190.2 K | – | 2032.7 kg/m3 | –
1190.8 K | – | 2032.6 kg/m3 | –
1191.6 K | – | 2032 kg/m3 | –
1192.4 K | – | 2031.4 kg/m3 | –
1192.9 K | – | 2030.7 kg/m3 | –
1193.2 K | – | 2030.7 kg/m3 | –
1193.7 K | – | 2030.1 kg/m3 | –
1194.1 K | – | 2029.5 kg/m3 | –
1194.4 K | – | 2029.5 kg/m3 | –
1194.5 K | – | 2028.9 kg/m3 | –
1194.7 K | – | 2028.3 kg/m3 | –
1195.3 K | – | 2028.3 kg/m3 | –
1195.7 K | – | 2027.7 kg/m3 | –
1196 K | – | 2027.1 kg/m3 | –
1196.4 K | – | 2027 kg/m3 | –
1197.1 K | – | 2026.4 kg/m3 | –
1197.6 K | – | 2026.3 kg/m3 | –
1198.3 K | – | 2025.7 kg/m3 | –
1198.8 K | – | 2025.1 kg/m3 | –
1199.3 K | – | 2025 kg/m3 | –
1199.6 K | – | 2024.4 kg/m3 | –
1200 K | – | 2024.4 kg/m3 | –
1200.6 K | – | 2023.8 kg/m3 | –
1200.8 K | – | 2023.2 kg/m3 | –
1201.2 K | – | 2023.2 kg/m3 | –
1201.6 K | – | 2022.6 kg/m3 | –
1202.1 K | – | 2022 kg/m3 | –
1202.3 K | – | 2020.8 kg/m3 | –
1202.5 K | – | 2020.8 kg/m3 | –
1203 K | – | 2020.2 kg/m3 | –
1203.4 K | – | 2020.1 kg/m3 | –
1203.7 K | – | 2019.6 kg/m3 | –
